Data on ten compounds can be found in patent US20250197387A1, “BCL-XL DEGRADERS AND USES THEREOF” (Kymera Therapeutics, Inc., priority 2021, published 2025).

For one test, the target named is T1, BCL-XL (Homo sapiens, UniProt Q07817).
T1 construct: endogenous in cells; host or cells: MOLT-4
Kind of test: BCL-XL degradation assay, western blot in MOLT-4 cells, 16 h. The settings on record: western blot, MOLT-4 cells, 16 h; for Dmax: read-out: Bcl-xL WB in MOLT-4 degradation 16 h: Average Dmax %; for DC50: read-out: Bcl-xL WB in MOLT-4 degradation 16 h: Mean external-Abs DC50. The test is classed as cell-based. Summed up:
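Infrared-imaged western blots quantified BCL-xL (normalised against beta-actin/GAPDH) after 16 hr, 37° C exposure of MOLT-4 cells to 0.02-10 μM compound; results given as DC50 and Dmax % bins.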
A general note: In western blotting, separated proteins are transferred to a membrane and probed.

The subject of the next test is MOLT-4 cells. Kind of test: CTG (CellTiter-Glo) cell viability assay, MOLT-4. The test is classed as cell-based. The settings on record: Homo sapiens, MOLT-4, 72 h, 3 day incubation, read-out: CTG Cell Viability Assay - MOLT-4 3 day: Average external-IC50. Summed up: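 10,000 cells/well; 9 doses, 1:3 from 10 μM top; 0.2% DMSO; 3 d, 37 °C, 5% CO2; CTG luminescence; IC50 via 3-parameter logistic fit. Letter bins differ: Caki-2 C/D cut at 10.0 μM, MOLT-4 at 3.0 μM.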
In general terms: ATP-based viability assays read luminescence as a measure of living cells.

The structures appear in SMILES notation.

T1 sequence (Q07817 whole entry): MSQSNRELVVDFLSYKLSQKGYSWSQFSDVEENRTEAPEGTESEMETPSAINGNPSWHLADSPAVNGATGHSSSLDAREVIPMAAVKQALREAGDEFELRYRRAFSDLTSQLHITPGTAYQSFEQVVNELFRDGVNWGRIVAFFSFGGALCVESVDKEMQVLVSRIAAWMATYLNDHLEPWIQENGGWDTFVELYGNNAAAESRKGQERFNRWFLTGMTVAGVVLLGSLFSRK

A word on the Dmax: it is the largest share of the target that was removed. In general, DC50 refers to the concentration giving 50% degradation. Usually IC50 stands for the point on the concentration scale where inhibition reaches its midpoint. Regarding `Cc1cc(N(C)c2ccc(-c3cnn(CC4CCCCC4)c3C)c(C(=O)NCCCCCCOc3cc(-c4scnc4C)ccc3CNC(=O)[C@@H]3C[C@@H](O)CN3C(=O)[C@@H](NC(=O)C3(F)CC3)C(C)(C)C)n2)nnc1Nc1nc2ccccc2s1` [I-203], at BCL-XL, the Dmax is < 50% and the DC50 was > 1 µM. Moreover, the IC50 in the test with MOLT-4 cells was in the range of 0.1 to 1 µM.
The corresponding values for `Cc1ncsc1-c1ccc([C@H](CC(=O)N(C)CCCC(=O)N2CCN(CC[C@H](CSc3ccccc3)Nc3ccc(S(=O)(=O)NC(=O)c4ccc(N5CCN(CC6=C(c7ccc(Cl)cc7)CCC(C)(C)C6)CC5)cc4)cc3S(=O)(=O)C(F)(F)F)CC2)NC(=O)[C@@H]2C[C@@H](O)CN2C(=O)[C@@H](NC(=O)C2(F)CC2)C(C)(C)C)cc1` [I-138] are < 50%, > 1 µM and > 3 µM.
Take `Cc1ncsc1-c1ccc(CNC(=O)[C@@H]2C[C@@H](O)CN2C(=O)[C@@H](c2cc(N3CC4(CN(C(=O)CCCCC(=O)N(C)CC#Cc5ccc(OCCCc6ccc(N7CCc8cccc(C(=O)Nc9nc%10ccccc%10s9)c8C7)nc6C(=O)O)c(F)c5)C4)C3)no2)C(C)C)cc1` [I-193]: on BCL-XL, the Dmax is > 75% and the DC50 was in the range of 0.01 to 0.1 µM. Further, the IC50 in the test on MOLT-4 cells fell in the range of 0.1 to 1 µM.
The corresponding values for `Cc1ncsc1-c1ccc([C@H](C)NC(=O)[C@@H]2C[C@@H](O)CN2C(=O)[C@@H](NC(=O)CCCCCCC(=O)N2CCN(CC3(C)CCC(c4ccc(Cl)cc4)=C(CN4CCN(c5ccc(C(=O)NS(=O)(=O)c6ccc(NCC78CC9CC(CC(O)(C9)C7)C8)c(S(=O)(=O)C(F)(F)F)c6)cc5)CC4)C3)CC2)C(C)(C)C)cc1` (stereo partly drawn) [I-398] are < 50%, > 1 µM and > 3 µM.
The corresponding values for `Cc1ncsc1-c1ccc([C@H](C)NC(=O)[C@@H]2C[C@@H](O)CN2C(=O)[C@H](c2cc(OC3CCN(CCCS(=O)(=O)NC(=O)c4nc(N5CCc6cccc(C(=O)Nc7nc8ccccc8s7)c6C5)ccc4-c4cnn(CC5CCCCC5)c4C)CC3)no2)C(C)C)cc1` [I-174] are < 50%, > 1 µM and 1 to 3 µM.
With `C#Cc1ccc([C@H](CO)NC(=O)[C@@H]2C[C@@H](O)CN2C(=O)[C@@H](NC(=O)CCCCCC(=O)N2CCN(CC[C@H](CSc3ccccc3)Nc3ccc(S(=O)(=O)NC(=O)c4ccc(N5CCN(CC6=C(c7ccc(Cl)cc7)CCC(C)(C)C6)CC5)cc4)cc3S(=O)(=O)C(F)(F)F)CC2)C(C)(C)C)cc1` [I-116], on BCL-XL, the Dmax was > 75% and the half-maximal degradation concentration (DC50) lay within 0.01 to 0.1 µM. The IC50 with MOLT-4 cells is < 0.1 µM.
As to `Cc1ncsc1-c1ccc([C@H](C)NC(=O)[C@@H]2C[C@@H](O)CN2C(=O)[C@H](NC(=O)CCCCCCCS(=O)(=O)NC(=O)c2nc(N3CCc4cccc(C(=O)Nc5nc6ccccc6s5)c4C3)ccc2-c2cnn(C)c2C)C(C)(C)C)cc1` [I-145], at BCL-XL, the Dmax was > 75% and the DC50 was 0.1 to 0.5 µM. For the same compound, the IC50 with MOLT-4 cells was > 3 µM.
The corresponding values for `Cc1ncsc1-c1ccc([C@@H](CC(=O)N(C)CCCC(=O)N2CCN(CC[C@H](CSc3ccccc3)Nc3ccc(S(=O)(=O)NC(=O)c4ccc(N5CCN(CC6=C(c7ccc(Cl)cc7)CCC(C)(C)C6)CC5)cc4)cc3S(=O)(=O)C(F)(F)F)CC2)NC(=O)[C@@H]2C[C@@H](O)CN2C(=O)[C@@H](NC(=O)C2(F)CC2)C(C)(C)C)cc1` [I-139] are > 75%, 0.1 to 0.5 µM and 1 to 3 µM.
Take `Cc1ncsc1-c1ccc([C@H](C)NC(=O)[C@@H]2C[C@@H](O)CN2C(=O)[C@@H](NC(=O)N2CCC(CN3CCC(CNC(=O)c4nc(N5CCc6cccc(C(=O)Nc7nc8ccccc8s7)c6C5)ccc4-c4cnn(CC5CCCCC5)c4C)CC3)CC2)C(C)(C)C)cc1` [I-144]: at BCL-XL, the Dmax was in the range of 50 to 75% and the DC50 lay within 0.5 to 1 µM. The IC50 with MOLT-4 cells lay in the range of 0.1 to 1 µM.
The corresponding values for `Cc1cc([C@@H](C(=O)N2C[C@H](O)C[C@H]2C(=O)NCc2ccc(-c3scnc3C)cc2OCC(=O)N2CCN(CC[C@H](CSc3ccccc3)Nc3ccc(S(=O)(=O)NC(=O)c4ccc(N5CCN(CC6=C(c7ccc(Cl)cc7)CCC(C)(C)C6)CC5)cc4)cc3S(=O)(=O)C(F)(F)F)CC2)C(C)C)on1` [I-135] are > 75%, 0.01 to 0.1 µM and 0.1 to 1 µM.
